Measured values taken from patent US10966994B2, “Thromboxane receptor antagonists” (ATXA THERAPEUTICS LIMITED, priority 2015, dated 2021).

Assays:
IP receptor = IP receptor (Homo sapiens, UniProt P43119); experiment: Specificity testing, IP receptor signaling; type: cell-based
Description: (§1) There is no or minimal inhibition of the majority of the non-TP-mediated signaling observed in the presence of either NTP42 & NTP48. Where there is inhibition of signaling, it is observed at the 10 μM concentration only. […] Compared to NTP42, NTP48 has less of an effect on the signaling of the non-TP prostanoid receptors and therefore, may be considered more favorable in this context.

human platelets = experiment: U46619-mediated platelet aggregation ex vivo (PAP-8E aggregometer); type: cell-based; conditions: for IC50: Platelet, human PRP, 10 min pre-incubation, 1 μM U46619, estimated IC50, read-out: IC50 values for Inhibition of U46619-Mediated Platelet Aggregation
Description: In order to evaluate NTP42-NTP49 in a second independent assay, the effect of the compounds on U46619-mediated platelet aggregation assays was examined. Clearly, from an efficacy point of view, this is an important assay and, physiologically, the more relevant with respect to the therapeutic target.
The compounds were tested in side-by-side assays with the previously identified key lead compound TP20 using the PAP-8E platelet aggregometer.
(§2) PRP was prepared from blood taken from healthy volunteers into syringes containing 3.8% sodium citrate and 10 μM indomethacin such that the final ratio of anticoagulant to blood was 1:9. Aliquots of PRP (300 μl) were pre-incubated for 10 min with the TP antagonists, TP20, NTP42, NTP43, NTP44, NTP45, NTP47, NTP48 and NTP49, where 2-fold serial dilutions from 0.25 μM was prepared for each, prior to stimulating platelets with 1 μM U46619, incubated at 37° C., with stirring. The results are presented as Percentage Aggregation (mean±S.E.M.), as determined by changes in light transmission over time using the PAP-8E Platelet Aggregation Profiler and represents data from 4 independent experiments (n=4).
as §2, with “TP20, NTP4,” for “TP20,”, “NTP42, NTP43” for “NTP42, NTP43, NTP44, NTP45, NTP47, NTP48”, “and NTP48,” for “and NTP49,”, “from 1” for “from 0.25”, “from at least 3” for “from 4”, “experiments (n≥3).” for “experiments (n=4).”

TPα = biological target: T1, TPα (Homo sapiens, UniProt P21731); experiment: 8-iso-PGF2α-mediated calcium mobilization in HEK.TPα cells; type: cell-based; conditions: 10 μM 8-iso-PGF2α, estimated IC50, read-out: IC50 values for inhibition of 8-iso-PGF2α-mediated [Ca2+]i mobilization, TPα
T1 construct: expressed in transfected cells; host or cells: HEK 293 (HEK.TPα, isolate HR #4)
T1 sequence (P21731 1-343): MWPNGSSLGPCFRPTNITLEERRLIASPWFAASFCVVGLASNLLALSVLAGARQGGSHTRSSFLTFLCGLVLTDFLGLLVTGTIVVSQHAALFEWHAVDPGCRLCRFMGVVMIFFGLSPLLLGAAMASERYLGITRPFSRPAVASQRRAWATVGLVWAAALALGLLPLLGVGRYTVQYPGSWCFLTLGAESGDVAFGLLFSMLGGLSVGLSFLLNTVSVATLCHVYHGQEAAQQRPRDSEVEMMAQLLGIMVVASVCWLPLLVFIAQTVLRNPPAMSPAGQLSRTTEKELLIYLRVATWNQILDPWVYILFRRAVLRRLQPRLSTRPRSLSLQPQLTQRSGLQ
Description: (§3) Effect of NTP42-NTP48 on 8-iso-PGF2α-mediated Calcium Mobilization In addition, to assessment of the compounds to antagonise U46619-mediated responses, the ability of NTP42 & NTP43 to inhibit the partial TP agonist 8-iso-PGF2α has been examined through calcium mobilization assays in HEK.TPα and HEK.TPβ cells.
(§4) Data is presented as the mean (±S.E.M.) percentage of the agonist-induced response in vehicle-treated cells (Percentage of Control; %) and represents data from at least 3 independent experiments were cells were treated in duplicate, except NTP48.

EP4 receptor = EP4 receptor (Homo sapiens, UniProt P35408); experiment: Specificity testing, EP4 receptor signaling; type: cell-based
Chain of EP4 receptor (P35408 whole entry): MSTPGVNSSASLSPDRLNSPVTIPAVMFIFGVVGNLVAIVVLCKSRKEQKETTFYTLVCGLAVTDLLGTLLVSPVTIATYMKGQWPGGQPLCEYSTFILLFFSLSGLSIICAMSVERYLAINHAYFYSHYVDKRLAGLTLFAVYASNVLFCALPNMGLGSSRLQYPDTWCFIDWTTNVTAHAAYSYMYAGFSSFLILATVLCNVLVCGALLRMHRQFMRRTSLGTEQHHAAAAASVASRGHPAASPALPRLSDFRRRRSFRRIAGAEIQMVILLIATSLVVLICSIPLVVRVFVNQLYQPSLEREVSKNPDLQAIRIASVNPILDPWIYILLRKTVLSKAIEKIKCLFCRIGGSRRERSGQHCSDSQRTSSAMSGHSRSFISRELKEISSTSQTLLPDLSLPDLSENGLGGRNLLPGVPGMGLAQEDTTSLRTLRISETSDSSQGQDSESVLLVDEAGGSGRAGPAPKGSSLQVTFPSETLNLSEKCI
Description: as §1

TPβ = biological target: T2, TPβ (Homo sapiens, UniProt P21731); experiment: 8-iso-PGF2α-mediated calcium mobilization in HEK.TPβ cells; type: cell-based; conditions: 10 μM 8-iso-PGF2α, estimated IC50, read-out: IC50 values for inhibition of 8-iso-PGF2α-mediated [Ca2+]i mobilization, TPβ
T2 construct: expressed in transfected cells; host or cells: HEK 293 (HEK.TPβ, isolate EM #8)
T2 sequence (P21731 1-407 isoform P21731-2): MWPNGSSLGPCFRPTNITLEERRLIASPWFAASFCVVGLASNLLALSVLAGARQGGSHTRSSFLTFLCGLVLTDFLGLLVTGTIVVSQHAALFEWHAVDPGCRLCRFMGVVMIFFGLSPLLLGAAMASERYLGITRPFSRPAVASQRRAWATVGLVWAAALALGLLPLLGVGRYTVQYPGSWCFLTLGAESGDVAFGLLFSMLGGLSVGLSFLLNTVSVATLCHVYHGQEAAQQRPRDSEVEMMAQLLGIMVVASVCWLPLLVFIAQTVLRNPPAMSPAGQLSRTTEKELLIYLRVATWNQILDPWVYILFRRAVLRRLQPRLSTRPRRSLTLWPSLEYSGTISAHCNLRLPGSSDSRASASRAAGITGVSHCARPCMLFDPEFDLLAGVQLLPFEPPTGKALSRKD
Description: as §3, §4

EP1 receptor = biological target: T3, EP1 receptor (Homo sapiens, UniProt P34995); experiment: Specificity testing, EP1 receptor signaling; type: cell-based
T3 sequence (P34995 1-402): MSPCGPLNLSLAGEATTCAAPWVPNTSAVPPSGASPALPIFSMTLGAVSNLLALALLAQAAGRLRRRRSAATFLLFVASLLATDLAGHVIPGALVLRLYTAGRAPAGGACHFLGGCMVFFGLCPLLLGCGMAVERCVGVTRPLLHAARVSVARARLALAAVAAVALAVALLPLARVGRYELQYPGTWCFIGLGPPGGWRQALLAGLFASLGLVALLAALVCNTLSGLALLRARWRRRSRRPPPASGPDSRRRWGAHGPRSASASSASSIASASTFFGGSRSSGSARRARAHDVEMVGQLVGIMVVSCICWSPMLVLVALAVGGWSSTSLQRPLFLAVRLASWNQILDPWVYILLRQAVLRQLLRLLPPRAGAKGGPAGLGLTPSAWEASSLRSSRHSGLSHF
Description: as §1

EP2 receptor = EP2 receptor (Homo sapiens, UniProt P43116); experiment: Specificity testing, EP2 receptor signaling; type: cell-based
Chain of EP2 receptor (P43116 whole entry): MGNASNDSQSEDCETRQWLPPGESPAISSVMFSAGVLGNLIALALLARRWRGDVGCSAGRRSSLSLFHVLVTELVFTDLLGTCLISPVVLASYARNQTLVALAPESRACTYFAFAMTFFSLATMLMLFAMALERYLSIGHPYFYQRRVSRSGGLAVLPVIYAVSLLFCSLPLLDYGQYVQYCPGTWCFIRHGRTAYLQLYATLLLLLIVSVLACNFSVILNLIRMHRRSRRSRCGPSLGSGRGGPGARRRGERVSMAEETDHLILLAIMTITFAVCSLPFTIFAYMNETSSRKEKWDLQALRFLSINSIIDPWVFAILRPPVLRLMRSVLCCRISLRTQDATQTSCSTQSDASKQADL

[1] = biological target: T4, thrombin (PAR1) receptors (Homo sapiens, UniProt P25116); experiment: Specificity testing, thrombin (PAR1) receptor signaling
T4 sequence (P25116 22-425): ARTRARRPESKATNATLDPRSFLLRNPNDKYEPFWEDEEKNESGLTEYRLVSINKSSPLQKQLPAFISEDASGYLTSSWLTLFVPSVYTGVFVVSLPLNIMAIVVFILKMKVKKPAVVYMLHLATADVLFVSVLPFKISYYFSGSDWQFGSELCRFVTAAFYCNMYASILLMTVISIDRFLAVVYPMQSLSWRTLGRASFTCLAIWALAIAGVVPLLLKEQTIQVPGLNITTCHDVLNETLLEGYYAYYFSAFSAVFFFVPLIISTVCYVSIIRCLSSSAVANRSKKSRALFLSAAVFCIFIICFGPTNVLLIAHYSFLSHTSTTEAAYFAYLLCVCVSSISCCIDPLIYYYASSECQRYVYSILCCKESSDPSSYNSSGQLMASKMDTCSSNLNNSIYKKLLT

Cell permeability = type: in vitro ADME
[2] = maximal inhibition, at 10 μM only

Chain of IP receptor (P43119 whole entry): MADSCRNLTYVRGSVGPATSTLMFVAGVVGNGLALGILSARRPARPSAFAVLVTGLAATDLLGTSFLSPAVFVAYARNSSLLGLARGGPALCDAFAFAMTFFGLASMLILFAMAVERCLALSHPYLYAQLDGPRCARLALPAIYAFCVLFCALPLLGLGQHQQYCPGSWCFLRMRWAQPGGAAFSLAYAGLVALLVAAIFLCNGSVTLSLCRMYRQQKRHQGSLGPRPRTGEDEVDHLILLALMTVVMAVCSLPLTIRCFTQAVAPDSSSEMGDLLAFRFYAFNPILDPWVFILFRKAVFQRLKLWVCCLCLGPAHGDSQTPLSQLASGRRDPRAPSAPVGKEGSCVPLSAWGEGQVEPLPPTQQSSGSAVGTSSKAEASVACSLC

SMILES	effect on the IP receptor (IP receptor)	IC50 (human platelets) [µM]	IC50 (TPα) [µM]	effect on the EP4 receptor (EP4 receptor)	IC50 (TPβ) [µM]	effect on the EP1 receptor (EP1 receptor)	effect on the EP2 receptor (EP2 receptor)	effect on signaling through thrombin (PAR1) receptors [1]	percentage reduction in responses, IP (IP receptor; [2]) [%]	percentage reduction in responses, EP4 (EP4 receptor; [2]) [%]	cell permeability (Cell permeability)	percentage reduction in responses, EP1 (EP1 receptor; [2]) [%]	toxicity (Toxicity)	inhibition of U46619-mediated aggregation of human platelet ex vivo (in words) (human platelets; 1 μM U46619)
COc1ccc(-c2cccc(Oc3ccc(C#N)cc3S(=O)(=O)NC(=O)NC(C)(C)C)c2)cc1 [NTP4, reference compound]	like TP20 and NTP4, neither NTP42, NTP43 nor NTP48 exhibited any effect	0.0213 ± 0.00101	0.103 ± 0.0111	like TP20 and NTP4, neither NTP42, NTP43 nor NTP48 exhibited any effect	0.058 ± 0.00631	like TP20 and NTP4, neither NTP42, NTP43 nor NTP48 exhibited any effect	like TP20 and NTP4, neither NTP42, NTP43 nor NTP48 exhibited any effect	like TP20 and NTP4, neither NTP42, NTP43 nor NTP48 exhibited any effect	–	–	–	–	–	–
CC(C)(C)NC(=O)NS(=O)(=O)c1cc(C#N)ccc1Oc1cccc(-c2ccc(OC(F)F)cc2)c1 [NTP42]	no effect	0.0101 ± 0.00107	0.0128 ± 0.00142	no effect	0.008 ± 0.001	no effect	no effect	neither NTP42, NTP43 nor NTP48 exhibited any effect	50	40	favorable cell permeability	~55	minimal toxicity	–
CC(C)(C)NC(=O)NS(=O)(=O)c1cc(C#N)ccc1Oc1cccc(-c2ccc(OC(F)(F)F)cc2)c1 [NTP43]	not to exhibit any effect	0.022 ± 0.00203	0.0307 ± 0.00505	not to exhibit any effect	0.009 ± 0.0016	not to exhibit any effect	not to exhibit any effect	neither NTP42, NTP43 nor NTP48 exhibited any effect	–	–	favorable cell permeability	–	minimal toxicity	–
CN(C)C(=O)c1ccc(-c2cccc(Oc3ccc(C#N)cc3S(=O)(=O)NC(=O)NC(C)(C)C)c2)cc1 [NTP48, 4-[3-[2-(tert-Butylcarbamoylsulfamoyl)-4-cyano-phenoxy]phenyl]-N,N-dimethyl-benzamide]	no effect	0.00945 ± 0.00138	0.0293 ± 0.00387	no effect	0.0154 ± 0.00216	no effect	no effect	neither NTP42, NTP43 nor NTP48 exhibited any effect	–	–	favorable cell permeability	–	minimal toxicity	–
COc1ccc(-c2cccc(Oc3ccc([N+](=O)[O-])cc3S(=O)(=O)NC(=O)NC(C)(C)C)c2)cc1 [TP20, reference compound]	like TP20 and NTP4, neither NTP42, NTP43 nor NTP48 exhibited any effect	0.00462 ± 0.00072	0.0464 ± 0.00424	like TP20 and NTP4, neither NTP42, NTP43 nor NTP48 exhibited any effect	0.017 ± 0.00212	like TP20 and NTP4, neither NTP42, NTP43 nor NTP48 exhibited any effect	like TP20 and NTP4, neither NTP42, NTP43 nor NTP48 exhibited any effect	like TP20 and NTP4, neither NTP42, NTP43 nor NTP48 exhibited any effect	–	–	–	–	–	potently inhibit
